Measurements published in US8362204B2 (priority 2006, dated 2013).
Several values for one entry are separate records, joined by “and”; a condition that tells them apart may be missing. Equal entries are not always repeated. Positions of bridges follow the written chain, without caps; N, C: chain ends. Non-standard residues stand in square brackets, D forms with d. Residues, ends and D or L forms follow the SMILES beside them. ξ: configuration not given here. Ala(indol-2-yl) = N[C@@H](Cc1cc2ccccc2[nH]1)C(=O)O; AllylGly = C=CC[C@H](N)C(=O)O; ξP = O=C(O)C1CCCN1

Experiments:
[1] = biological target: T1, neuronal-type nicotinic receptors (Bos taurus, UniProt Q07263+Q8SPU6); assay type: cell-based, Bovine
T1 construct: monolayer cultures of bovine adrenal chromaffin cells; endogenous in cells; host or cells: bovine adrenal chromaffin cells (primary monolayer cultures)

[2] = biological target: T1, neuronal-type nicotinic receptors; conditions: cited from earlier work

T1 sequence (Q07263 22-495): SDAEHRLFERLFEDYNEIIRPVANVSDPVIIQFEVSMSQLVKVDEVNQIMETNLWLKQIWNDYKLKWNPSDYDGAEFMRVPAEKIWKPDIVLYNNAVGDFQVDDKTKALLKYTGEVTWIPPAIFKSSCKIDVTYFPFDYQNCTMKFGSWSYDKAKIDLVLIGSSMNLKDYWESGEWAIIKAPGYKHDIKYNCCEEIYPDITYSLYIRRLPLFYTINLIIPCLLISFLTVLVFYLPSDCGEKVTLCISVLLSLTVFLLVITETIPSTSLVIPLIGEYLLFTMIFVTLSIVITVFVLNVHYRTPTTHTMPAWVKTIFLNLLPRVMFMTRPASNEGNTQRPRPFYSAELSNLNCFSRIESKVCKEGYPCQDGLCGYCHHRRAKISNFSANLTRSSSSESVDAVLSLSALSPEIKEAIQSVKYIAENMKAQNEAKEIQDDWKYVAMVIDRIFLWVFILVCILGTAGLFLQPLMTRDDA
T1 sequence (Q8SPU6 20-496): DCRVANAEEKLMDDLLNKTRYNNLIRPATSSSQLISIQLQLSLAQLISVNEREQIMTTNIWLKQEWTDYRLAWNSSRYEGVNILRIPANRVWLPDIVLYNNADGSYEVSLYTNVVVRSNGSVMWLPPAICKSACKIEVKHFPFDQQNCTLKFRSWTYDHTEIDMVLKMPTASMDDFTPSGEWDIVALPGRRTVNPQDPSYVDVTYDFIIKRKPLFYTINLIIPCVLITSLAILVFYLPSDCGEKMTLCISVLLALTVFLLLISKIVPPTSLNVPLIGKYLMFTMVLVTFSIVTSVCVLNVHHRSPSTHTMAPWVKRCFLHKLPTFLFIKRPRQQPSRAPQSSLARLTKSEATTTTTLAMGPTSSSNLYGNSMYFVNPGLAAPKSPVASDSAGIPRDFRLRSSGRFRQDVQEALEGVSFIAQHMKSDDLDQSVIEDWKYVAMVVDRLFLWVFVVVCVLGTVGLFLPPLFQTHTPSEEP

Structure (SMILES) | Adrenaline Release, 1st-4th (individual wells) [1] | Adrenaline Release, % control [1] | Adrenaline Release, mean [1] | Noradrenaline Release, 1st-4th (individual wells) [1] | Noradrenaline Release, % control [1] | Noradrenaline Release, mean [1] | Noradrenaline Release, % inhibition [1] | noradrenaline released, basal release (0.72%) subtracted [1] | effect on nicotine-stimulated release of adrenaline and noradrenaline [2]
C[C@@H]1NC(=O)[C@@H]2CCCC[C@H](NC(=O)CN)C(=O)N[C@@H](CSSC[C@@H](C(N)=O)NC(=O)[C@H](CCCNC(=N)N)NC(=O)[C@H](Cc3cc4ccccc4[nH]3)NC1=O)C(=O)N[C@@H](CO)C(=O)N[C@@H](CC(=O)O)C(=O)N1CCCC1C(=O)N[C@@H](CCCNC(=N)N)C(=O)N2 (stereo partly drawn) [compound 118, [2,8]-Dicarba-[3,12]-Cystino Conotoxin ImI: NH2-Gly-c[Hag-Cys-Ser-Asp-Pro-Arg-Hag]-Ala-Trp-Arg-Cys)-NH2] | 2.94% and 4.40% and 4.46% and 4.09% and 2.55% and 3.63% and 2.62% and 3.31% | 88.260% and 65.306% | 3.97% and 3.03% | 4.52% and 6.29% and 7.00% and 7.34% and 4.19% and 5.86% and 4.32% and 5.51% | 90.859% and 69.384% | 6.29% and 4.97% |  |  | 
C[C@@H]1NC(=O)[C@@H]2CSSC[C@H](NC(=O)CN)C(=O)N[C@@H](CC=CC[C@@H](C(N)=O)NC(=O)[C@H](CCCNC(=N)N)NC(=O)[C@H](Cc3cc4ccccc4[nH]3)NC1=O)C(=O)N[C@@H](CO)C(=O)N[C@@H](CC(=O)O)C(=O)N1CCCC1C(=O)N[C@@H](CCCNC(=N)N)C(=O)N2 (stereo partly drawn) [compound 119, [2,8]-Cystino-[3,12]-Dicarba Conotoxin ImI: NH2-Gly-Cys-c [Hag-Ser-Asp-Pro-Arg-Cys-Ala-Trp-Arg-Hag]-NH2] (H-GC[AllylGly]SD[ξP]RCA[Ala(indol-2-yl)]R[AllylGly]-NH2; disulfide 2-8; staple 3-12) | 3.31% and 3.67% and 4.14% and 3.98% and 2.32% and 2.95% and 2.76% and 3.02% | 83.420% and 58.888% | 3.77% and 2.76% | 4.89% and 5.75% and 5.73% (2×) and 3.22% and 4.58% and 3.99% and 4.81% | 78.400% and 55.971% | 5.52% and 4.15% | 21.600% | 3.43% | 
C[C@@H]1NC(=O)[C@@H]2CSSC[C@H](NC(=O)CN)C(=O)N[C@@H](CSSC[C@@H](C(N)=O)NC(=O)[C@H](CCCNC(=N)N)NC(=O)[C@H](Cc3cc4ccccc4[nH]3)NC1=O)C(=O)N[C@@H](CO)C(=O)N[C@@H](CC(=O)O)C(=O)N1CCCC1C(=O)N[C@@H](CCCNC(=N)N)C(=O)N2 (stereo partly drawn) [native-Ctx ImI] (H-GCCSD[ξP]RCA[Ala(indol-2-yl)]RC-NH2; disulfide 2-8, 3-12) |  |  |  |  |  |  |  |  | inhibit
